Laboratory results from US4385057A, “Diphenylbutyl-piperazinecarboxamides in pharmaceutical compositions and methods” (priority 1978, dated 1983).
Where two headings read alike, the source gives them in different places.

How the values were obtained:
Geller conflict test = format: in vivo; details: s.c., ** (Student's t-test)
Source text: The Geller conflict test for anxiolytics clearly meets the requirements for a standard model and is most useful operant paradigm in screening for new drugs. (I. Geller and J. Seifler, Psychopharmacologia l, 482 (1960); B. Blackwell and W. E. Whitehead, In: A. Sudilovsky, S. Gershorn and B. Beer, eds. Predictability in Psychopharmacology: Preclinical and Clinical Correlations. Raven Press New York pp. 121, (1975)).

[1] = test system: mouse-killing behaviour of rats; test: Spontaneous mouse-killing (muricide) by rats; format: in vivo, rat (male hooded Long-Evans); details: Rattus norvegicus, sc
Source text: For the purpose of detecting new psychotropic substances with antiaggressive properties, pharmacologist have used several different models. […] This form of aggressive behaviour which is considered to be of predatory nature, is physiologically and topographically different from other forms of aggression (M. O'Boyle, Psychol. Bull. 81, 261 (1974)). Mousekilling is a spontaneous behaviour in some rat strains e.g. male hooded Long-Evans rats. Male hooded Long-Evans rats placed in individual cages were used. By testing a number of rats, a colony of rats was obtained that killed a mouse whenever introduced into the rats' cage, by biting the mouse through the cervical spinal cord. Each rat was tested for mouse-killing behaviour (killing a mouse within 5 minutes) prior to each experiment, thus serving as its own positive control. For each dose level 6 positive rats were selected and the test substance was administered by subcutaneous injection. Doses were selected to form a dose-response curve and the mean effective dose (ED50, mg/kg) was calculated by means of linear regression. The rats were tested at 1, and 2 hours after being injected subcutaneously.

[2] = test system: acetic acid induced writhing; test: Writhing test (analgetic properties); format: in vivo, mouse (NMRI female); details: Mus musculus, sc, 20 min before acetic acid i.p.; read-out: ED50, mg/kg, s.c. (dose blocking the writhing behaviour in 50% of the animals)
Description: The writhing test is a frequently used test of analgetic properties (L. B. Witkin et al., J. Pharmacol. Exp. Ther. 133, 400 (1961)). If acetic acid (0.5%, 15 ml/kg) is injected intraperitoneally in mice (NMRI) they will without exception develop a writhing behaviour characterized by stretching their hind legs. The drugs to be tested were administered subcutaneously to 6 female mice at each dose 20 min. before the injection of the acetic acid. After 10 min. the behaviour of the mice was studied in 5 min. The ED50 value is the dose blocking the writhing behaviour in 50% of the animals during the 5 min. study period. [drawing 13]

[3] = test system: isolation-induced aggressive behaviour of male mice; test: Isolation-induced aggressive behaviour; format: in vivo, mouse (male NMR mice); details: Mus musculus, sc; 1.0 hour after drug administration; read-out: ED50, mg/kg, sc (dose inhibiting aggressive behaviour among 50 percent of the pairs)
Source text: Male mice subjected to prolonged isolation develop aggressive behavior against each other when paired. […] The clinical correlation of this test indicates tranquillizing and anxiolytic activities as well as antiaggressive properties as such (R. L. Duncan et al., J. Med. Chem. 13, 1 (1970)).
This type of aggression is interesting because it is known that this kind of emotional behaviour might be located in limbic structures in the brain (P. D. Mac Lean, Psychosom. Med. 11, 338 (1949)).
Every week 24 male NMR mice, weighing 20-22 g, were isolated in Makrolon cages for three weeks with diet and water ad libitum. A piece of cardboard was placed between the cages to prevent visual contact.
To test aggressiveness the mice were paired in a neutral area, a beaker (14 cm high and diameter 14 cm). A pair is considered aggressive if both the animals show clear signs of fighting within 5 min. This fighting is characterized by biting and vocalization. As soon as fighting is seen, the mice are separated and brought to their home cage. […] Animals showing no aggression are discarded. […] The test substance is administered s.c. (0.2-0.4 ml/20 g). The mice are paired 1/2 h, 1 h, 2 h, 4 h, 6 h and 24 h after the injection for trials of 5 min. duration.
The ED50 -value (mg/kg) reported is the dose inhibiting aggressive behaviour among 50 percent of the pairs 1.0 hour after drug administration.

gastric ulcers in rats = test: Stress-induced ulcers (restraint and cold); format: in vivo, rat (female Sprague Dawley); details: pre-treatment dose 1.0 mg/kg, 15 min before cold and restraint
Source text: A number of methods have been described for studies of somatic expression of adverse stimulation in experimental animals. One method is based upon the development of gastric lesions in rat subjected to some form of environmental stress. The most frequently used mode of stressing the rats is by simple physical restraint. In the experiments to be described rats were immobilized in rigid plastic devices. As repeatedly shown the restraint and the exposure to cold, act synergistically to produce gastric ulcers. The method for production of stress ulcus in rats has been described earlier (R. J. Levine In: C. J. Pfeiffer ed., Peptic Ulcer, Scand. Univ. Books, Copenhagen 1971). The animals in the experiments, female Sprague Dawley rats 180-230 g, have been kept immobilized for three hours at +5° C. For 24 hours prior to restraint the animals furthermore were not allowed to ingest anything but tap water. In all experiments the rats were divided in three groups. In the first group all animals were pre-treated only with saline 15 min. before the exposure to the stressors. […] The third group consisted always of the compound to be tested in this model. The number and severity of gastric erosions in the opened stomach of controls and drug-pre-treated animals were scored. The average number of gastric ulcers in the control rats were put equal to a hundred percent. In table VI the potency of some compounds to protect against gastric ulcers in the described experiments is reported. All pre-treatments were always made 15 min. before the exposure to cold and restraint.

[4] = test system: exploratory activity / climbing of mice; test: Climbing (inability to ascend net-ladder); format: in vivo, mouse (NMRI female); details: Mus musculus, sc; 0.5 h after administration; read-out: ED50, mg/kg, s.c. (dose rendering 50% of the mice incapable of entering the top of the net-ladder)
Description: When mice are placed in a new area, they explore the whole available territory. Minor and major tranquillizers inhibit the exploratory activity. The sedative effect of drugs is evaluated by the inability of mice to ascend a netladder. The process of climbing is very complex and consists of psychical and taxic (motor performance) components. For the experiments a transparent cage (36×27×23 cm) and a net-ladder (35×6 cm) standing with an inclination of 45° was used. (P. Kneip. Arch. Int. Pharmacodyn. 76, 238 (1960); F. Sandberg, Arzneimittelforsch. 4, 203 (1959)).
The test compound is administered s.c. (10 ml/kg) to 6 NMRI female mice per dose. The mice are marked with a number code from 1 to 6, in order to recognize each individual mouse. In 25 minutes, 55 minutes, 1 h 55 minutes and 3 h 55 minutes time after the administration the mice are placed in the above-mentioned cage for 10 minutes. The number of mice ascending the top of the net-ladder is noted. Other behavioural items are also noted. The ED50 (mg/kg) reported is the dose rendering 50% of the mice incapable of entering the top of the net-ladder 0.5 h after the administration.

[5] = test system: guinea pig papillary muscle; test: Prolongation of effective refractory period in guinea pig papillary muscle; details: 10^-7 M; pacing frequencies 1, 2 and 4 Hz
thymus = test: Swim-test (stress-induced thymolymphatic involution); format: in vivo, mouse (NMRI female)
Source text: If an animal is in a stage of exhaustion the rise in glucocorticoids induced by the stress causes thymolymphatic involution and elicites a characteristic change in blood count. […] In the experiments NMRI female mice were used with well-documented thymic glands. In the experiments the mice were divided in four groups. In the first group the mice were allowed to stay in their home cages all the time. In the second group saline-treated mice were repeatedly forced to swim in water at a temperature of +5° C. for 1 min. once every hour, 6 times per day for four days. In the third group the mice were pre-treated once with the test compound 10 min. before the first swim-test, otherwise the mice were manipulated in the same way as in the second group. In the fourth group the mice were adrenalectomized three days before the start of the swim tests. Otherwise also this group was manipulated as the second group. All mice were killed on the 5th day of the experiment and the weight of the thymic gland registered.

[6] = test system: isolation-induced aggressive behaviour of male mice; details: background on clinically used drugs; in words; cited from earlier work

| SMILES | Percent shocks compared to controls (Geller conflict test; dose 0.5 mg/kg) [%] | ED50 ([1]; read-out: ED50, mg/kg, s.c., 2 hrs after injection) [mg/kg] | ED50 ([1]; 1 hr after injection, read-out: ED50, mg/kg, s.c., 1 hr) [mg/kg] | ED50 [2] [mg/kg] | ED50 [3] [mg/kg] | Inhibition, % (gastric ulcers) (gastric ulcers in rats) [%] | ED50 [4] [mg/kg] | prolongation of the effective refractory period [5] [ms] | protecting capacity against the induced stress (thymus; in words) | Relative weight of thymus, ×100 (thymus; pre-treatment dose 1.0 mg/kg, once 10 min before first swim-test, saline stressed 36, unstressed 66, Wilcoxon's ranking test) | Percent shocks compared to controls (Geller conflict test; dose 1.0 mg/kg) [%] | effect on isolation-induced aggressive behaviour [6] |
| --- | --- | --- | --- | --- | --- | --- | --- | --- | --- | --- | --- | --- |
| CCNC(=O)N1CCN(CCCC(c2ccc(F)cc2)c2ccc(F)cc2)CC1 [II, N'-Ethyl-4-[4,4-(di-p-fluorophenyl)butyl]-1-piperazinecarboxamide] | 250 | 1.9 | 0.4 | 0.7 | 1.3 | 43 | 0.7 | 30 | most protecting capacity | 50 | – | – |
| CN1C(=O)CN=C(c2ccccc2)c2cc(Cl)ccc21 [Diazepam, reference compound] | – | – | – | – | – | – | – | – | – | – | 240 | active |
